These results are taken from EP4494656A1 (priority 2023, dated 2025).

Numbered stars: 1 amine (or outer) side, 2 acyl side, 3 side chain; on linkers, the order of the positions; unused ones are H or OH. Bridge positions count the residues as written; N and C are the ends. Square brackets hold non-standard residues; d marks the D form. Peptide text beside a SMILES is read from it. * marks the point of attachment. Adda = CO[C@@H](Cc1ccccc1)[C@@H](C)/C=C(C)/C=C/[C@H](N[*:1])[C@H](C)C(=O)[*:2]; dAsp(3S-Me) = C[C@H](C(=O)[*:3])[C@@H](N[*:1])C(=O)[*:2]; d(γGlu) = O=C(O)[C@@H](CCC(=O)[*:2])N[*:1]; NMeDha = C=C(NC)C(=O)O; Propargyl = C#CC*

Data set [1] deals with HEK293 OATP1B3+.
Data set [2] addresses type 2A protein phosphatase. The note with it: cited from earlier work.
In data set [3] the target is type 1 protein phosphatase. The note with it: cited from earlier work.
Data set [4] concerns HEK293 OATP1B1+.
The target in data set [5] is protein phosphatase-1 catalytic subunit (a-Isoform from rabbit, Sigma-Aldrich) (Oryctolagus cuniculus, UniProt P62139).
The subject of data set [6] is OATP1B1. The data set can be described thus: in vitro. To be noted: human.
Data set [7] concerns OATP1B3. As to the kind of experiment: in vitro. To be noted: human.

protein phosphatase-1 catalytic subunit (a-Isoform from rabbit, Sigma-Aldrich), sequence (P62139 whole entry, looked up, canonical isoform): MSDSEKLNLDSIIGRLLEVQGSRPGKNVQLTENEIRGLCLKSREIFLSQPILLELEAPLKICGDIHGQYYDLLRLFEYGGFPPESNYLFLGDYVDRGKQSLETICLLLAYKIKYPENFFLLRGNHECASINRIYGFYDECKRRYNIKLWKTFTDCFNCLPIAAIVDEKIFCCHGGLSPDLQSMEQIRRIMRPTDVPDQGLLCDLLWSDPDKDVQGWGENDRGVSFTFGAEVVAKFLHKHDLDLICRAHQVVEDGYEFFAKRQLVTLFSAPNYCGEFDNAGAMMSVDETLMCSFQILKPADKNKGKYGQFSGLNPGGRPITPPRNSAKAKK

With `C=C1C(=O)N[C@H](C)C(=O)N[C@@H](CC(C)C)C(=O)N[C@@H](C(=O)O)[C@H](C)C(=O)N[C@@H](CCCNC(=N)N)C(=O)N[C@@H](/C=C/C(C)=C/[C@H](C)[C@H](Cc2ccccc2)OC)[C@H](C)C(=O)N[C@@H](C(=O)O)CCC(=O)N1C` [MC-LR, microcystin-LR, reference compound] (R[Adda][d(γGlu)][NMeDha][dA]L[dAsp(3S-Me)]-OH; lactam N-7), the “Ratio of IC50_OATP1B3/ IC50_PPI” value in data set [1] was 2.9. In addition, the IC50 is 7.9 ± 1.7 nM in data set [1] (read-out: IC50_OATP1B3 ± SE), 0.04 nM in data set [2], 0.03 nM in data set [3] and 17.1 ± 2.1 nM in data set [4] (read-out: IC50_OATP1B1 ± SE). Moreover, the “Ratio of IC50_OATP1B1/ IC50_PPI” value in data set [4] is 6.3.
With `C=C1C(=O)N[C@H](C)C(=O)N[C@@H](Cc2ccc(OCc3cn(CC(=O)N4CCN(C(=O)Cn5cc(COc6ccc(C[C@@H]7NC(=O)[C@@H](C)NC(=O)C(=C)N(C)C(=O)CC[C@H](C(=O)O)NC(=O)[C@@H](C)[C@H](/C=C/C(C)=C/[C@H](C)[C@H](Cc8ccccc8)OC)NC(=O)[C@H](CCCNC(=N)N)NC(=O)[C@@H](C)[C@H](C(=O)O)NC7=O)cc6)nn5)CC4)nn3)cc2)C(=O)N[C@@H](C(=O)O)[C@H](C)C(=O)N[C@@H](CCCNC(=N)N)C(=O)N[C@@H](/C=C/C(C)=C/[C@H](C)[C@H](Cc2ccccc2)OC)[C@H](C)C(=O)N[C@@H](C(=O)O)CCC(=O)N1C` [MC-PrgTyr-Arg-Dimer-1], in data set [1], the “increase of IC50_OATP1B3 compared to the MC-PrgTyr-Arg monomer” value was 26 fold and the “increase of IC50_OATP1B3 in comparison to MC-LR” value was 134 fold. In data set [5], the “lower IC50_PPI compared to the IC50_PPI of the MC-LR reference cytotoxin” value is recorded as “about 10 fold” and the “lower IC50_PPI compared to the IC50_PPI of the corresponding MC-PrgTyr-Arg monomer” value was “more than 20 fold”. In data set [6], this compound yielded an IC50 of 2000 ± 711 nM. In data set [4], the “increase of IC50_OATP1B1 compared to the corresponding MC-PrgTyr-Arg monomer” value came out at 24 fold and the “increase of IC50_OATP1B1 in comparison to MC-LR” value was “more than 116 fold”. The compound further had an IC50 in data set [7] of 1060 ± 302 nM.
Turning to `C=C1C(=O)N[C@H](C)C(=O)N[C@@H](Cc2ccc(OCc3cn(CC(=O)N4CCN(C(=O)[C@H](CCCCN)n5cc(COc6ccc(C[C@@H]7NC(=O)[C@@H](C)NC(=O)C(=C)N(C)C(=O)CC[C@H](C(=O)O)NC(=O)[C@@H](C)[C@H](/C=C/C(C)=C/[C@H](C)[C@H](Cc8ccccc8)OC)NC(=O)[C@H](CCCNC(=N)N)NC(=O)[C@@H](C)[C@H](C(=O)O)NC7=O)cc6)nn5)CC4)nn3)cc2)C(=O)N[C@@H](C(=O)O)[C@H](C)C(=O)N[C@@H](CCCNC(=N)N)C(=O)N[C@@H](/C=C/C(C)=C/[C@H](C)[C@H](Cc2ccccc2)OC)[C@H](C)C(=O)N[C@@H](C(=O)O)CCC(=O)N1C` [MC-PrgTyr-Arg-Dimer-2], in data set [1], the “increase of IC50_OATP1B3 compared to the MC-PrgTyr-Arg monomer” value is listed as 45 fold and the “increase of IC50_OATP1B3 in comparison to MC-LR” value worked out at 234 fold. Also, in data set [5], the “lower IC50_PPI compared to the IC50_PPI of the MC-LR reference cytotoxin” value is reported as “about 16 fold” and the “lower IC50_PPI compared to the IC50_PPI of the corresponding MC-PrgTyr-Arg monomer” value is “more than 50 fold”. Moreover, the IC50 in data set [6] is above 3000 nM. In data set [4], the “increase of IC50_OATP1B1 compared to the corresponding MC-PrgTyr-Arg monomer” value is “more than 36 fold” and the “increase of IC50_OATP1B1 in comparison to MC-LR” value is “more than 175 fold”. The IC50 in data set [7] was found to be 1850 ± 309 nM.
Take `C#CCOc1ccc(C[C@@H]2NC(=O)[C@@H](C)NC(=O)C(=C)N(C)C(=O)CC[C@H](C(=O)O)NC(=O)[C@@H](C)[C@H](/C=C/C(C)=C/[C@H](C)[C@H](Cc3ccccc3)OC)NC(=O)[C@H](CCCNC(=N)N)NC(=O)[C@@H](C)[C@H](C(=O)O)NC2=O)cc1` [MC-PrgTyr-Arg, cyclo(D-Ala-PrgTyr-D-MeAsp-Arg-Adda-D-Glu-Mdha), reference compound] (R[Adda][d(γGlu)][NMeDha][dA]Y(Propargyl)[dAsp(3S-Me)]-OH; lactam N-7): the values for the IC50 in data set [6] and in data set [7] were 82.2 ± 4.5 nM and 40.4 ± 36.6 nM, respectively.
